Reference: article PMC5078040 (Oncotarget, 2016)
pEC50, pIC50: −log10 of the molar value.

Experiments:
NEK7 = target: T1, NEK7 (Homo sapiens, UniProt Q8TDX7); assay: KinomeScan; format: binding; conditions: 1uM
T1 construct: purchased DiscoveRx KINOMEscan

EPHA3 = target: T2, EPHA3 (Homo sapiens, UniProt P29320); assay: KinomeScan; format: binding; conditions: 1uM
T2 construct: purchased DiscoveRx KINOMEscan

PIK3CA(M1043I) = target: T3, PIK3CA(M1043I) (Homo sapiens, UniProt P42336, M1043I); assay: KinomeScan; format: binding; conditions: 1uM
T3 construct: purchased DiscoveRx KINOMEscan
T3 sequence (P42336 whole entry M1043I): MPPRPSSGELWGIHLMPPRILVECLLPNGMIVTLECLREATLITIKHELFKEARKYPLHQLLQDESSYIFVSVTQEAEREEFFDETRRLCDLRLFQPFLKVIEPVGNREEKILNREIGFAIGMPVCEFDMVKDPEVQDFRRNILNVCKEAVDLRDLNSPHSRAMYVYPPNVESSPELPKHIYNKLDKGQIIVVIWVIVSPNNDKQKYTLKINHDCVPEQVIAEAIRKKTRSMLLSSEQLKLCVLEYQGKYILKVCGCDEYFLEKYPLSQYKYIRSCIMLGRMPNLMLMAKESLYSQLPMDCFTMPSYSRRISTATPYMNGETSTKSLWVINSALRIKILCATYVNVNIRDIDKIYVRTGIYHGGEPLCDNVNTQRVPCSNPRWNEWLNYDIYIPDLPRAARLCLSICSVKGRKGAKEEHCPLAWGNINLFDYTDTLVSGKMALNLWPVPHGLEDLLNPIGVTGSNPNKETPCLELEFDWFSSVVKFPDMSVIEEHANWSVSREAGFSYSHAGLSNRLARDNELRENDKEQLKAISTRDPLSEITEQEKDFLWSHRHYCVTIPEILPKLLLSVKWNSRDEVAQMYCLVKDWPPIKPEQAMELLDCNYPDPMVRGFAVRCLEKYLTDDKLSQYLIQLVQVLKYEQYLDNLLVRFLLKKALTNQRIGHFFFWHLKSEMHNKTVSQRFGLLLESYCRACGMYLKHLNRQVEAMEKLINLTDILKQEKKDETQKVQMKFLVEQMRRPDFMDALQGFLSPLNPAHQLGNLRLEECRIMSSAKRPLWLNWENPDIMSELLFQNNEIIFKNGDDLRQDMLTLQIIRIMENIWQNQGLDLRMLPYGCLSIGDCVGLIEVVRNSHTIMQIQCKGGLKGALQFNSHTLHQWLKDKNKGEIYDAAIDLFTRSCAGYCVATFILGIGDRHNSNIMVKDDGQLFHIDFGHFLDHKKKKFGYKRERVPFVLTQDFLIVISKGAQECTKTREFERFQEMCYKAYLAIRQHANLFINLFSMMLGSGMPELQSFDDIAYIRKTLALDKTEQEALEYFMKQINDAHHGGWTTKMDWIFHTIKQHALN

ACVR1 = target: T4, ACVR1 (Homo sapiens, UniProt Q04771); assay: KinomeScan; format: binding; conditions: 1uM
T4 construct: purchased DiscoveRx KINOMEscan

FLT3(ITD) = assay: KinomeScan; format: binding; conditions: 1uM
PI3Kγ = PI3Kγ (Mus musculus, UniProt Q9JHG7); assay: cell-based
NEK9 = target: T5, NEK9 (Homo sapiens, UniProt Q8TD19); assay: KinomeScan; format: binding; conditions: 1uM
T5 construct: purchased DiscoveRx KINOMEscan

[1] = target: T6, ABL1(F317L)-phosphorylated (Homo sapiens, UniProt P00519, F317L); assay: KinomeScan; format: binding; conditions: 1uM
T6 construct: purchased DiscoveRx KINOMEscan

CDK7 = target: T7, CDK7 (Homo sapiens, UniProt P50613); assay: KinomeScan; format: binding; conditions: 1uM
T7 construct: purchased DiscoveRx KINOMEscan

PDGFRB = target: T8, PDGFRB (Homo sapiens, UniProt P09619); assay: KinomeScan; format: binding; conditions: 1uM
T8 construct: purchased DiscoveRx KINOMEscan

CSK = target: T9, CSK (Homo sapiens, UniProt P41240); assay: KinomeScan; format: binding; conditions: 1uM
T9 construct: purchased DiscoveRx KINOMEscan

MET = target: T10, MET (Homo sapiens, UniProt P08581); assay: KinomeScan; format: binding; conditions: 1uM
T10 construct: purchased DiscoveRx KINOMEscan

RET = target: T11, RET (Homo sapiens, UniProt P07949); assay: KinomeScan; format: binding; conditions: 1uM
T11 construct: purchased DiscoveRx KINOMEscan

NDR2 = target: T12, NDR2 (Homo sapiens, UniProt Q9Y2H1); assay: KinomeScan; format: binding; conditions: 1uM
T12 construct: purchased DiscoveRx KINOMEscan

ADCK4 = target: T13, ADCK4 (Homo sapiens, UniProt Q96D53); assay: KinomeScan; format: binding; conditions: 1uM
T13 construct: purchased DiscoveRx KINOMEscan

ULK3 = target: T14, ULK3 (Homo sapiens, UniProt Q6PHR2); assay: KinomeScan; format: binding; conditions: 1uM
T14 construct: purchased DiscoveRx KINOMEscan

CSNK1A1L = target: T15, CSNK1A1L (Homo sapiens, UniProt Q8N752); assay: KinomeScan; format: binding; conditions: 1uM
T15 construct: purchased DiscoveRx KINOMEscan

FER = target: T16, FER (Homo sapiens, UniProt P16591); assay: KinomeScan; format: binding; conditions: 1uM
T16 construct: purchased DiscoveRx KINOMEscan
T16 sequence (P16591 whole entry): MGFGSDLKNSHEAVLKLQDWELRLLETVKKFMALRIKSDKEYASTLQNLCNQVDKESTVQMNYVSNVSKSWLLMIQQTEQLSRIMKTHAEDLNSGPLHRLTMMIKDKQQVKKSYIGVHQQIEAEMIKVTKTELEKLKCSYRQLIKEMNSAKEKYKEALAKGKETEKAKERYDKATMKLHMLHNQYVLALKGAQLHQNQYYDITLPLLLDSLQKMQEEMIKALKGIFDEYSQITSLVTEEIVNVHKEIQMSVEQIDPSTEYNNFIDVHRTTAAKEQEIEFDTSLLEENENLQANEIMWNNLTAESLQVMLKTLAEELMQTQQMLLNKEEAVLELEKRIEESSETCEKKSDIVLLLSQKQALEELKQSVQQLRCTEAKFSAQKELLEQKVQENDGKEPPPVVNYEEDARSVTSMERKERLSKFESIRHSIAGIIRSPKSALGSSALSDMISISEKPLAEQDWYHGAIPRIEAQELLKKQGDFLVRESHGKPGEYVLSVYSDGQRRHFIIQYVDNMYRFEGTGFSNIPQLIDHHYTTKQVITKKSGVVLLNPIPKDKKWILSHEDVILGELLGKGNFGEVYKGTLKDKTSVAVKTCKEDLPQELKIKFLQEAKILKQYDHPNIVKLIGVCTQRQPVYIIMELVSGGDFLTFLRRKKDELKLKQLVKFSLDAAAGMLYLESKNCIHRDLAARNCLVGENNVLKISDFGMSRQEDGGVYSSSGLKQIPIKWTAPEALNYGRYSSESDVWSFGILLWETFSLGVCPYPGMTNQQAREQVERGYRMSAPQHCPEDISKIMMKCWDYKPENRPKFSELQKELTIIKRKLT

FES = target: T17, FES (Homo sapiens, UniProt P07332); assay: KinomeScan; format: binding; conditions: 1uM
T17 construct: purchased DiscoveRx KINOMEscan
T17 sequence (P07332 whole entry): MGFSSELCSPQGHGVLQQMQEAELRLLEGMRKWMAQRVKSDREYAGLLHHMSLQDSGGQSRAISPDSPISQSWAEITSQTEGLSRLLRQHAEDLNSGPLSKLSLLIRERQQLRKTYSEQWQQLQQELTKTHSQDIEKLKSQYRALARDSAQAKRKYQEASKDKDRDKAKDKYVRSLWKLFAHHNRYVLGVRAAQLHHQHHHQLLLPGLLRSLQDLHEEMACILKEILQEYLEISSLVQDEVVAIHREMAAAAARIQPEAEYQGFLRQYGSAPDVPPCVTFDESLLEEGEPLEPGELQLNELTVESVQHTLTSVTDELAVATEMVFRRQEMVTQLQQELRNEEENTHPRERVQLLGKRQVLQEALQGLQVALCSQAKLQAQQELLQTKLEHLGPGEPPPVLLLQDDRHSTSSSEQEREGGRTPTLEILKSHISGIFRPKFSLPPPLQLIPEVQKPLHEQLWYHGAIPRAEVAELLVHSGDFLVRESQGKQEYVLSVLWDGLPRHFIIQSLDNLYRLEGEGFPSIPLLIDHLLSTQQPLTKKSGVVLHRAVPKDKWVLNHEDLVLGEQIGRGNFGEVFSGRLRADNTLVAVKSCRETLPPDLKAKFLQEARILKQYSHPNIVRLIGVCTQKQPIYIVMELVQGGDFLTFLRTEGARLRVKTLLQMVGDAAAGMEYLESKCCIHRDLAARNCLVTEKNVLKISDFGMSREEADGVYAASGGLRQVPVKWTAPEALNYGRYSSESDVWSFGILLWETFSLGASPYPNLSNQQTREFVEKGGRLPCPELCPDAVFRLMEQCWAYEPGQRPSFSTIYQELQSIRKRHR

PIK3CA(Q546K) = target: T18, PIK3CA(Q546K) (Homo sapiens, UniProt P42336, Q546K); assay: KinomeScan; format: binding; conditions: 1uM
T18 construct: purchased DiscoveRx KINOMEscan

GRK7 = target: T19, GRK7 (Homo sapiens, UniProt Q8WTQ7); assay: KinomeScan; format: binding; conditions: 1uM
T19 construct: purchased DiscoveRx KINOMEscan

KIT = target: T20, KIT (Homo sapiens, UniProt P10721); assay: KinomeScan; format: binding; conditions: 1uM
T20 construct: purchased DiscoveRx KINOMEscan

PIK4CB = target: T21, PIK4CB (Homo sapiens, UniProt Q9UBF8); assay: KinomeScan; format: binding; conditions: 1uM
T21 construct: purchased DiscoveRx KINOMEscan

MAP3K15 = target: T22, MAP3K15 (Homo sapiens, UniProt Q6ZN16); assay: KinomeScan; format: binding; conditions: 1uM
T22 construct: purchased DiscoveRx KINOMEscan

MAP3K4 = target: T23, MAP3K4 (Homo sapiens, UniProt Q9Y6R4); assay: KinomeScan; format: binding; conditions: 1uM
T23 construct: purchased DiscoveRx KINOMEscan

FLT3(R834Q) = target: T24, FLT3(R834Q) (Homo sapiens, UniProt P36888, R834Q); assay: KinomeScan; format: binding; conditions: 1uM
T24 construct: purchased DiscoveRx KINOMEscan

PRKG2 = target: T25, PRKG2 (Homo sapiens, UniProt Q13237); assay: KinomeScan; format: binding; conditions: 1uM
T25 construct: purchased DiscoveRx KINOMEscan

PHKG1 = target: T26, PHKG1 (Homo sapiens, UniProt Q16816); assay: KinomeScan; format: binding; conditions: 1uM
T26 construct: purchased DiscoveRx KINOMEscan

EPHA6 = target: T27, EPHA6 (Homo sapiens, UniProt Q9UF33); assay: KinomeScan; format: binding; conditions: 1uM
T27 construct: purchased DiscoveRx KINOMEscan
T27 sequence (Q9UF33 23-1036): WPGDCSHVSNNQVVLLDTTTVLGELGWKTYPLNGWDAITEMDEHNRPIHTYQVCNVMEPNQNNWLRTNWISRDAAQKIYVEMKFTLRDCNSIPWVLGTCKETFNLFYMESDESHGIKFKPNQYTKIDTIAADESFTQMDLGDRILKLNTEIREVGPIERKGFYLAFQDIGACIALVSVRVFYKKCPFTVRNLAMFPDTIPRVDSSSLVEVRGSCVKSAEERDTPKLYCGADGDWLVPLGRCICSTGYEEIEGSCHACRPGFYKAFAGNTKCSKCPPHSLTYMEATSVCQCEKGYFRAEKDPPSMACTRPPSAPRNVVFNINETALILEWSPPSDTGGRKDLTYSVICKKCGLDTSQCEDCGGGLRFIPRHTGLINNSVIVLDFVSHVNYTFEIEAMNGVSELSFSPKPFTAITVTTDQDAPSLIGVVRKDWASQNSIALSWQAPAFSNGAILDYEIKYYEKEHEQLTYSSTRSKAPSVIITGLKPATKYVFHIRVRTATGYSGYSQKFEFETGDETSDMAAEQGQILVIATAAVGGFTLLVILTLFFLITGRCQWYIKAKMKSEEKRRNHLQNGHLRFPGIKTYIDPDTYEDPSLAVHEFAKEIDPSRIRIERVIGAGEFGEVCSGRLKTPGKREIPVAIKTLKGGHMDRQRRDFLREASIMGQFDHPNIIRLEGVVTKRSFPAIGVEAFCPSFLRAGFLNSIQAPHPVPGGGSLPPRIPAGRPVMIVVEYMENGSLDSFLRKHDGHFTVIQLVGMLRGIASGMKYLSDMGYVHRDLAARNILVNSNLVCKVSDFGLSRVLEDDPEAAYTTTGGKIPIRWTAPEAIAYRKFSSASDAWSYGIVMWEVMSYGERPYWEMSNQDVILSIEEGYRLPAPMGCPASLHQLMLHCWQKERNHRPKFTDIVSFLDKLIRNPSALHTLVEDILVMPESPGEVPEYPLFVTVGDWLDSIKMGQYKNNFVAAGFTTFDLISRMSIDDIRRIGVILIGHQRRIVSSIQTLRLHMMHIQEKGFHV

DRAK2 = target: T28, DRAK2 (Homo sapiens, UniProt O94768); assay: KinomeScan; format: binding; conditions: 1uM
T28 construct: purchased DiscoveRx KINOMEscan
T28 sequence (O94768 whole entry): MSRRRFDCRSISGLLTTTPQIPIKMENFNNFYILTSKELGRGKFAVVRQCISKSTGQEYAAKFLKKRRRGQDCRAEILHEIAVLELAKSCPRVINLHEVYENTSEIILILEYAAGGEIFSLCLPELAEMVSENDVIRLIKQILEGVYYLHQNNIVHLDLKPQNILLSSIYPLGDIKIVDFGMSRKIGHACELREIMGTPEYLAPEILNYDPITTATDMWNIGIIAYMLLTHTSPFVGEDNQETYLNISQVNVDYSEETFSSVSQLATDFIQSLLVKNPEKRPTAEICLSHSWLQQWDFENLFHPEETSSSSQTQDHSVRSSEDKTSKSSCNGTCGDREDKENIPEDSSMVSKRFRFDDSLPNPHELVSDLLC

BRK = target: T29, BRK (Homo sapiens, UniProt Q13882); assay: KinomeScan; format: binding; conditions: 1uM
T29 construct: purchased DiscoveRx KINOMEscan

EPHA1 = target: T30, EPHA1 (Homo sapiens, UniProt P21709); assay: KinomeScan; format: binding; conditions: 1uM
T30 construct: purchased DiscoveRx KINOMEscan

MAPKAPK5 = target: T31, MAPKAPK5 (Homo sapiens, UniProt Q8IW41); assay: KinomeScan; format: binding; conditions: 1uM
T31 construct: purchased DiscoveRx KINOMEscan

MKK7 = target: T32, MKK7 (Homo sapiens, UniProt O14733); assay: KinomeScan; format: binding; conditions: 1uM
T32 construct: purchased DiscoveRx KINOMEscan

IKK-beta = target: T33, IKK-beta (Homo sapiens, UniProt O14920); assay: KinomeScan; format: binding; conditions: 1uM
T33 construct: purchased DiscoveRx KINOMEscan

PI4KB = target: T34, PI4KB (Homo sapiens, UniProt Q9UBF8); assay: ADP-glo biochemical assay
T34 construct: purchased Invitrogen
Description: The reaction in each tube was started immediately by adding ATP and kept going for an hour under 37°C. After the tube cooled for 5 minutes at room temperature, 5 μL solvent reactions were carried out in a 384-well plate. Then 5 μL of ADP-Glo™ reagent was added into each well to stop the reaction and consume the remaining ADP within 40 minutes. At the end, 10 μL of kinase detection reagent was added into the well and incubated for 30 minutes to produce a luminescence signal. Luminescence signal was measured with an automated plate reader (Perkin-Elmer Envision) and each measurement was performed in triplicate.

[2] = target: T35, ABL1(Q252H)-nonphosphorylated (Homo sapiens, UniProt P00519, Q252H); assay: KinomeScan; format: binding; conditions: 1uM
T35 construct: purchased DiscoveRx KINOMEscan

ACVRL1 = target: T36, ACVRL1 (Homo sapiens, UniProt P37023); assay: KinomeScan; format: binding; conditions: 1uM
T36 construct: purchased DiscoveRx KINOMEscan

ICK = target: T37, ICK (Homo sapiens, UniProt Q9UPZ9); assay: KinomeScan; format: binding; conditions: 1uM
T37 construct: purchased DiscoveRx KINOMEscan

YANK2 = target: T38, YANK2 (Homo sapiens, UniProt Q9NY57); assay: KinomeScan; format: binding; conditions: 1uM
T38 construct: purchased DiscoveRx KINOMEscan

GRK4 = target: T39, GRK4 (Homo sapiens, UniProt P32298); assay: KinomeScan; format: binding; conditions: 1uM
T39 construct: purchased DiscoveRx KINOMEscan

PRKD1 = target: T40, PRKD1 (Homo sapiens, UniProt Q15139); assay: KinomeScan; format: binding; conditions: 1uM
T40 construct: purchased DiscoveRx KINOMEscan

PIM3 = target: T41, PIM3 (Homo sapiens, UniProt Q86V86); assay: KinomeScan; format: binding; conditions: 1uM
T41 construct: purchased DiscoveRx KINOMEscan

ACVR2B = target: T42, ACVR2B (Homo sapiens, UniProt Q13705); assay: KinomeScan; format: binding; conditions: 1uM
T42 construct: purchased DiscoveRx KINOMEscan

T2 sequence (P29320 21-983): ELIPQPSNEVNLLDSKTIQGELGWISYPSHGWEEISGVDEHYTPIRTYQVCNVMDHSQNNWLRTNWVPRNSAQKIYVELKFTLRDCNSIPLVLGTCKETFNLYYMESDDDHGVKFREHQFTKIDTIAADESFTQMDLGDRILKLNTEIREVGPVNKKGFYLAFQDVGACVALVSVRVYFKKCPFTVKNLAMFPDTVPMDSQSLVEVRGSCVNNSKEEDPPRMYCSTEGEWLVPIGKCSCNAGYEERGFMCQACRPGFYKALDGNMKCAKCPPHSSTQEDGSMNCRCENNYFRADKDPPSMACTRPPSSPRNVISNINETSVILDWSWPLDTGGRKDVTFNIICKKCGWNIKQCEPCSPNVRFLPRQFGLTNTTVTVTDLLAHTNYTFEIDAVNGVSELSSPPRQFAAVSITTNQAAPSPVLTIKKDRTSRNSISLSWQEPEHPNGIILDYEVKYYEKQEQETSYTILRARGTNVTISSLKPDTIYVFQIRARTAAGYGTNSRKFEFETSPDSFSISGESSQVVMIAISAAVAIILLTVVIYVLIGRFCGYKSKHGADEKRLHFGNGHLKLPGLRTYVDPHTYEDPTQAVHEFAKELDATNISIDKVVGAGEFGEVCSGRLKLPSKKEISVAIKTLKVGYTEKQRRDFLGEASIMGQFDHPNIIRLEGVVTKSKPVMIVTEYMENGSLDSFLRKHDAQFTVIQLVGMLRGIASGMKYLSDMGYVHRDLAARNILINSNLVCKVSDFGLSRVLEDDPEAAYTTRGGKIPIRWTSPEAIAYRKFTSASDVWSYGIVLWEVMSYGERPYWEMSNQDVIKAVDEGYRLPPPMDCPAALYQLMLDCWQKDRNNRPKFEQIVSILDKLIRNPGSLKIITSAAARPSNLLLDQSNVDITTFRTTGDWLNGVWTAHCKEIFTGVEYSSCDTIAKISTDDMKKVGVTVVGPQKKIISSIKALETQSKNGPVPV

SMILES: Cc1nc(NC(=O)[C@@H](N)C(C)C)sc1-c1cnc(Cl)c(NS(=O)(=O)c2ccccc2)c1 [PI3KD-IN-015]
- KinomeScan NEK7 (NEK7): 100
- KinomeScan EPHA3 (EPHA3): 86
- KinomeScan PIK3CA(M1043I) (PIK3CA(M1043I)): 0
- KinomeScan ACVR1 (ACVR1): 100
- KinomeScan FLT3(ITD) (FLT3(ITD)): 100
- pEC50 (PI3Kγ): < 5.52
- KinomeScan NEK9 (NEK9): 100
- KinomeScan ABL1(F317L)-phosphorylated [1]: 99
- KinomeScan CDK7 (CDK7): 100
- KinomeScan PDGFRB (PDGFRB): 98
- KinomeScan CSK (CSK): 90
- KinomeScan MET (MET): 100
- KinomeScan RET (RET): 100
- KinomeScan NDR2 (NDR2): 100
- KinomeScan ADCK4 (ADCK4): 95
- KinomeScan ULK3 (ULK3): 88
- KinomeScan CSNK1A1L (CSNK1A1L): 100
- KinomeScan FER (FER): 89
- KinomeScan FES (FES): 100
- KinomeScan PIK3CA(Q546K) (PIK3CA(Q546K)): 4.1
- KinomeScan GRK7 (GRK7): 97
- KinomeScan KIT (KIT): 92
- KinomeScan PIK4CB (PIK4CB): 0.8
- KinomeScan MAP3K15 (MAP3K15): 80
- KinomeScan MAP3K4 (MAP3K4): 100
- KinomeScan FLT3(R834Q) (FLT3(R834Q)): 84
- KinomeScan PRKG2 (PRKG2): 100
- KinomeScan PHKG1 (PHKG1): 100
- KinomeScan EPHA6 (EPHA6): 100
- KinomeScan DRAK2 (DRAK2): 70
- KinomeScan BRK (BRK): 92
- KinomeScan EPHA1 (EPHA1): 100
- KinomeScan MAPKAPK5 (MAPKAPK5): 82
- KinomeScan MKK7 (MKK7): 98
- KinomeScan IKK-beta (IKK-beta): 100
- pIC50 (PI4KB): 6.76
- KinomeScan ABL1(Q252H)-nonphosphorylated [2]: 100
- KinomeScan ACVRL1 (ACVRL1): 100
- KinomeScan ICK (ICK): 95
- KinomeScan YANK2 (YANK2): 99
- KinomeScan GRK4 (GRK4): 92
- KinomeScan PRKD1 (PRKD1): 100
- KinomeScan PIM3 (PIM3): 100
- KinomeScan ACVR2B (ACVR2B): 100
